Assay results reported in ChEMBL document CHEMBL3885861, “Open TG-GATES”.

Species on record: Rattus norvegicus
Assay: Open TG-GATES - Regimen: Single
Format: toxicity, organism-based, Sprague-Dawley
Parameters: regimen Single, gender Male, age 6 weeks
Conditions: in vivo, po, route gavage; for APTT / Bas / Eos / Fbg / Hb / Ht / Lym / MCH / MCHC / MCV / Mono / Neu / PT / Plat / RBC / Ret / WBC: tissue Blood; for KIDNEY_L / KIDNEY_R / KIDNEY_TOTAL: tissue Kidney; for LIVER: tissue Liver; for A/G / ALP / ALT / AST / BUN / CRE / Ca / Cl / DBIL / GLC / IP / K / LDH / Na / PL / RALB / TBIL / TC / TG / TP / gamma-GTP: tissue Plasma
[1] = 60 mg/kg, 3 h, dose level Middle
[2] = 60 mg/kg, 6 h, dose level Middle
[3] = 60 mg/kg, 9 h, dose level Middle
[4] = 60 mg/kg, 24 h, dose level Middle
[5] = 200 mg/kg, 3 h, dose level High
[6] = 200 mg/kg, 6 h, dose level High
[7] = 200 mg/kg, 9 h, dose level High
[8] = 200 mg/kg, 24 h, dose level High

CCc1oc2ccccc2c1C(=O)c1cc(Br)c(O)c(Br)c1 [BENZBROMARONE]
TERMINAL_BW [1]: 215.1 g
APTT [1]: 17.4 s
Bas [1]: 0%
Eos [1]: 1%
Fbg [1]: 233.2 mg/dL
Hb [1]: 13.8 g/dL
Ht [1]: 41.1%
Lym [1]: 83%
MCH [1]: 21.9 pg
MCHC [1]: 33.7%
MCV [1]: 64.9 fL
Mono [1]: 6.6%
Neu [1]: 9.4%
PT [1]: 11.8 s
Plat [1]: 99.4 x10_4/uL
RBC [1]: 633 x10_4/ul
Ret [1]: 7.5%
WBC [1]: 133 x10_2/uL
KIDNEY_L [1]: 1 g
KIDNEY_R [1]: 1 g
KIDNEY_TOTAL [1]: 1.9 g
LIVER [1]: 10.6 g
A/G [1]: 2.1
ALP [1]: 892.8 IU/L
ALT [1]: 30.6 IU/L
AST [1]: 62.4 IU/L
BUN [1]: 12.8 mg/dL
CRE [1]: 0.6 mg/dL
Ca [1]: 11 mg/dL
Cl [1]: 103.8 meq/L
DBIL [1]: 0.064 mg/dL
GLC [1]: 202.8 mg/dL
IP [1]: 9.8 mg/dL
K [1]: 4.8 meq/L
LDH [1]: 87.4 IU/L
Na [1]: 139.6 meq/L
PL [1]: 147.6 mg/dL
RALB [1]: 3.8 g/dL
TBIL [1]: 0.3 mg/dL
TC [1]: 82.6 mg/dL
TG [1]: 72.8 mg/dL
TP [1]: 5.7 g/dL
gamma-GTP [1]: 1 IU/L
TERMINAL_BW [2]: 212 g
APTT [2]: 16.1 s
Bas [2]: 0%
Eos [2]: 1%
Fbg [2]: 230.6 mg/dL
Hb [2]: 13.5 g/dL
Ht [2]: 40.2%
Lym [2]: 75.6%
MCH [2]: 21.7 pg
MCHC [2]: 33.6%
MCV [2]: 64.5 fL
Mono [2]: 6.4%
Neu [2]: 17.2%
PT [2]: 12.2 s
Plat [2]: 103.4 x10_4/uL
RBC [2]: 624.2 x10_4/ul
Ret [2]: 7.8%
WBC [2]: 86 x10_2/uL
KIDNEY_L [2]: 1 g
KIDNEY_R [2]: 1 g
KIDNEY_TOTAL [2]: 2 g
LIVER [2]: 9.8 g
A/G [2]: 2.2
ALP [2]: 764.8 IU/L
ALT [2]: 28.8 IU/L
AST [2]: 58.8 IU/L
BUN [2]: 9.2 mg/dL
CRE [2]: 0.5 mg/dL
Ca [2]: 10.3 mg/dL
Cl [2]: 103.6 meq/L
DBIL [2]: 0.016 mg/dL
GLC [2]: 195 mg/dL
IP [2]: 10.1 mg/dL
K [2]: 4.8 meq/L
LDH [2]: 88.8 IU/L
Na [2]: 138.6 meq/L
PL [2]: 131.4 mg/dL
RALB [2]: 3.8 g/dL
TBIL [2]: 0.4 mg/dL
TC [2]: 74.2 mg/dL
TG [2]: 79.6 mg/dL
TP [2]: 5.6 g/dL
gamma-GTP [2]: 1 IU/L
TERMINAL_BW [3]: 210.8 g
APTT [3]: 16.3 s
Bas [3]: 0%
Eos [3]: 1%
Fbg [3]: 233 mg/dL
Hb [3]: 13.6 g/dL
Ht [3]: 40.8%
Lym [3]: 77.6%
MCH [3]: 21.9 pg
MCHC [3]: 33.4%
MCV [3]: 65.6 fL
Mono [3]: 5.4%
Neu [3]: 16.6%
PT [3]: 12.2 s
Plat [3]: 109.2 x10_4/uL
RBC [3]: 622.6 x10_4/ul
Ret [3]: 7.4%
WBC [3]: 90.4 x10_2/uL
KIDNEY_L [3]: 0.9 g
KIDNEY_R [3]: 1 g
KIDNEY_TOTAL [3]: 1.9 g
LIVER [3]: 9.1 g
A/G [3]: 2.1
ALP [3]: 731.6 IU/L
ALT [3]: 29 IU/L
AST [3]: 59.8 IU/L
BUN [3]: 10.4 mg/dL
CRE [3]: 0.6 mg/dL
Ca [3]: 10.1 mg/dL
Cl [3]: 104.4 meq/L
DBIL [3]: 0.004 mg/dL
GLC [3]: 187.8 mg/dL
IP [3]: 11.1 mg/dL
K [3]: 4.9 meq/L
LDH [3]: 85 IU/L
Na [3]: 138 meq/L
PL [3]: 112.4 mg/dL
RALB [3]: 3.9 g/dL
TBIL [3]: 0.3 mg/dL
TC [3]: 67.4 mg/dL
TG [3]: 37.6 mg/dL
TP [3]: 5.7 g/dL
gamma-GTP [3]: 1.2 IU/L
TERMINAL_BW [4]: 222.2 g
APTT [4]: 16.1 s
Bas [4]: 0%
Eos [4]: 1.2%
Fbg [4]: 223.2 mg/dL
Hb [4]: 13.8 g/dL
Ht [4]: 41.1%
Lym [4]: 77.2%
MCH [4]: 22.4 pg
MCHC [4]: 33.7%
MCV [4]: 66.5 fL
Mono [4]: 9%
Neu [4]: 12.6%
PT [4]: 12.3 s
Plat [4]: 105.9 x10_4/uL
RBC [4]: 617.8 x10_4/ul
Ret [4]: 7.5%
WBC [4]: 80 x10_2/uL
KIDNEY_L [4]: 1 g
KIDNEY_R [4]: 1 g
KIDNEY_TOTAL [4]: 2.1 g
LIVER [4]: 11.9 g
A/G [4]: 2.2
ALP [4]: 861.2 IU/L
ALT [4]: 31.6 IU/L
AST [4]: 63.4 IU/L
BUN [4]: 18.6 mg/dL
CRE [4]: 0.6 mg/dL
Ca [4]: 10.3 mg/dL
Cl [4]: 104.8 meq/L
DBIL [4]: 0.016 mg/dL
GLC [4]: 183.2 mg/dL
IP [4]: 7.9 mg/dL
K [4]: 5 meq/L
LDH [4]: 111.2 IU/L
Na [4]: 138.2 meq/L
PL [4]: 130.6 mg/dL
RALB [4]: 4.1 g/dL
TBIL [4]: 0.4 mg/dL
TC [4]: 68.2 mg/dL
TG [4]: 111 mg/dL
TP [4]: 5.9 g/dL
gamma-GTP [4]: 1.4 IU/L
TERMINAL_BW [5]: 215.1 g
APTT [5]: 17.8 s
Bas [5]: 0%
Eos [5]: 1%
Fbg [5]: 227 mg/dL
Hb [5]: 13.3 g/dL
Ht [5]: 39.8%
Lym [5]: 76.4%
MCH [5]: 22.2 pg
MCHC [5]: 33.3%
MCV [5]: 66.5 fL
Mono [5]: 4.4%
Neu [5]: 18.4%
PT [5]: 12.3 s
Plat [5]: 98.6 x10_4/uL
RBC [5]: 600 x10_4/ul
Ret [5]: 7.7%
WBC [5]: 85.4 x10_2/uL
KIDNEY_L [5]: 1 g
KIDNEY_R [5]: 0.9 g
KIDNEY_TOTAL [5]: 1.9 g
LIVER [5]: 9.9 g
A/G [5]: 1.9
ALP [5]: 814 IU/L
ALT [5]: 37.2 IU/L
AST [5]: 70 IU/L
BUN [5]: 17.2 mg/dL
CRE [5]: 0.8 mg/dL
Ca [5]: 9.9 mg/dL
Cl [5]: 103.4 meq/L
DBIL [5]: 0.096 mg/dL
GLC [5]: 252.6 mg/dL
IP [5]: 10 mg/dL
K [5]: 5.3 meq/L
LDH [5]: 137.2 IU/L
Na [5]: 138.4 meq/L
PL [5]: 136.8 mg/dL
RALB [5]: 3.6 g/dL
TBIL [5]: 0.4 mg/dL
TC [5]: 75.6 mg/dL
TG [5]: 69.6 mg/dL
TP [5]: 5.5 g/dL
gamma-GTP [5]: 1 IU/L
TERMINAL_BW [6]: 213.5 g
APTT [6]: 16.3 s
Bas [6]: 0%
Eos [6]: 0.8%
Fbg [6]: 239.2 mg/dL
Hb [6]: 13.2 g/dL
Ht [6]: 39.6%
Lym [6]: 80.2%
MCH [6]: 21.6 pg
MCHC [6]: 33.3%
MCV [6]: 64.8 fL
Mono [6]: 5.4%
Neu [6]: 13.6%
PT [6]: 12.2 s
Plat [6]: 97.5 x10_4/uL
RBC [6]: 612 x10_4/ul
Ret [6]: 7.9%
WBC [6]: 66.9 x10_2/uL
KIDNEY_L [6]: 1 g
KIDNEY_R [6]: 1 g
KIDNEY_TOTAL [6]: 2 g
LIVER [6]: 9.5 g
A/G [6]: 2
ALP [6]: 776.8 IU/L
ALT [6]: 34 IU/L
AST [6]: 59 IU/L
BUN [6]: 14.2 mg/dL
CRE [6]: 0.7 mg/dL
Ca [6]: 10.5 mg/dL
Cl [6]: 101.4 meq/L
DBIL [6]: 0.024 mg/dL
GLC [6]: 212.4 mg/dL
IP [6]: 10.3 mg/dL
K [6]: 4.8 meq/L
LDH [6]: 137.4 IU/L
Na [6]: 139.2 meq/L
PL [6]: 137 mg/dL
RALB [6]: 3.8 g/dL
TBIL [6]: 0.4 mg/dL
TC [6]: 78.4 mg/dL
TG [6]: 56.6 mg/dL
TP [6]: 5.7 g/dL
gamma-GTP [6]: 1.4 IU/L
TERMINAL_BW [7]: 213.1 g
APTT [7]: 17 s
Bas [7]: 0%
Eos [7]: 0%
Fbg [7]: 240 mg/dL
Hb [7]: 13.2 g/dL
Ht [7]: 39.4%
Lym [7]: 79.2%
MCH [7]: 22.2 pg
MCHC [7]: 33.6%
MCV [7]: 66 fL
Mono [7]: 2.8%
Neu [7]: 17.8%
PT [7]: 12.2 s
Plat [7]: 104 x10_4/uL
RBC [7]: 596.4 x10_4/ul
Ret [7]: 8.2%
WBC [7]: 96.1 x10_2/uL
KIDNEY_L [7]: 1 g
KIDNEY_R [7]: 1 g
KIDNEY_TOTAL [7]: 2 g
LIVER [7]: 9.2 g
A/G [7]: 2.1
ALP [7]: 868 IU/L
ALT [7]: 34.4 IU/L
AST [7]: 60.8 IU/L
BUN [7]: 16.6 mg/dL
CRE [7]: 0.7 mg/dL
Ca [7]: 10.4 mg/dL
Cl [7]: 103.4 meq/L
DBIL [7]: 0.04 mg/dL
GLC [7]: 207.8 mg/dL
IP [7]: 10.7 mg/dL
K [7]: 4.9 meq/L
LDH [7]: 178.8 IU/L
Na [7]: 138.6 meq/L
PL [7]: 143.8 mg/dL
RALB [7]: 3.9 g/dL
TBIL [7]: 0.3 mg/dL
TC [7]: 81.2 mg/dL
TG [7]: 65.6 mg/dL
TP [7]: 5.9 g/dL
gamma-GTP [7]: 1.4 IU/L
TERMINAL_BW [8]: 217.2 g
APTT [8]: 15.8 s
Bas [8]: 0%
Eos [8]: 0.6%
Fbg [8]: 219.2 mg/dL
Hb [8]: 13.9 g/dL
Ht [8]: 41.2%
Lym [8]: 83.6%
MCH [8]: 22.2 pg
MCHC [8]: 33.6%
MCV [8]: 65.9 fL
Mono [8]: 4.6%
Neu [8]: 11.4%
PT [8]: 12.4 s
Plat [8]: 107.4 x10_4/uL
RBC [8]: 627.2 x10_4/ul
Ret [8]: 7.6%
WBC [8]: 117.5 x10_2/uL
KIDNEY_L [8]: 1 g
KIDNEY_R [8]: 1 g
KIDNEY_TOTAL [8]: 2 g
LIVER [8]: 11.3 g
A/G [8]: 2.1
ALP [8]: 1012.6 IU/L
ALT [8]: 35 IU/L
AST [8]: 61 IU/L
BUN [8]: 16.8 mg/dL
CRE [8]: 0.7 mg/dL
Ca [8]: 10.2 mg/dL
Cl [8]: 103.6 meq/L
DBIL [8]: 0.018 mg/dL
GLC [8]: 182 mg/dL
IP [8]: 7.9 mg/dL
K [8]: 4.9 meq/L
LDH [8]: 186.2 IU/L
Na [8]: 139.6 meq/L
PL [8]: 119.6 mg/dL
RALB [8]: 3.9 g/dL
TBIL [8]: 0.3 mg/dL
TC [8]: 70.8 mg/dL
TG [8]: 74.8 mg/dL
TP [8]: 5.9 g/dL
gamma-GTP [8]: 1.6 IU/L
